This passage reports Ki and melting point results from patent US8877778B2, “Benzofurane compounds” (Hoffmann-La Roche Inc., priority 2010, dated 2014).

One series deals with human D2 receptor (Homo sapiens (Human), UniProt P14416). The experiment in a line: Radioligand binding ([3H]-spiperone) to cloned receptors expressed in HEK-293 EBNA cells. As to conditions: HEK293 EBNA cell membranes expressing human D2. Here is the method:
(§1) HEK293 EBNA cells were transiently transfected with expression plasmids encoding for the human D2 or D3 or for the human 5-HT2A receptor, respectively. The cells were harvested 48 h post-transfection, washed three times with cold PBS and stored at −80° C. prior to use. The pellet was suspended in cold 50 mM Tris-HCl buffer comprising 10 mM EDTA (pH 7.4) and was homogenized with a Polytron (Kinematica AG, Basel, Switzerland) for 20-30 sec at 12.000 rpm. After centrifugation at 48.000×g for 30 min at 4° C., the pellet was resuspended in cold 10 mM Tris-HCl buffer comprising 0.1 mM EDTA (pH 7.4), homogenized, and centrifuged as above. This pellet was further resuspended in a smaller volume of ice cold 10 mM Tris-HCl buffer comprising 0.1 mM EDTA (pH 7.4) and homogenized with a Polytron for 20-30 sec at 12.000 rpm. The protein content of this homogenate was determined with the Bio-Rad (Bradford) Protein Assay (Biorad Laboratories GmbH, München, Germany) according to the instructions of the manufacturer using gamma globulin as the standard. This homogenate was stored at −80° C. in aliquots and thawed immediately prior to use.
(§2) Aliquots of membrane preparations were thawed at RT, resupended in assay buffer (D2, D3: 50 mM Tris-HCl, 120 mM NaCl, 5 mM MgCl2, 1 mM EDTA, 5 mM KCl, 1.5 mM CaCl2, pH=7.4; 5-HT2A: 50 mM Tris-HCl, 10 mM MgCl2, 1 mM EGTA, pH=7.4), homogenized with a Polytron for 20-30 sec at 12.000 rpm and adjusted to a final concentration of approximately 7.5 μg protein/well (D2, D3) and 15 μg protein/well (5-HT2A), respectively.
(§3) The binding affinity (Ki) of the compounds was determined using radioligand binding. Membranes were incubated in a total volume of 200 μl with a fixed concentration of radioligand (final concentration approximately 0.7 nM [^3H]-spiperone for D2, 0.5 nM [^3H]-spiperone for D3, and 1.1 nM [^3H]-ketanserin for 5-HT2A) and ten concentrations of test compound in ranging between 10 μM-0.1 nM for 1 h at RT. At the end of the incubation, the reaction mixtures were filtered on to unifilter 96-well white microplates with bonded GF/C filters (Packard BioScience, Zürich, Switzerland; preincubated for 1 h in 0.1% polyethylenimine (PEI) in assay buffer) with a Filtermate 196 harvester (Packard BioScience) and washed 3 times with cold assay buffer. The nonspecific binding was determined with equally composed reaction mixtures in the presence of 10 μM unlabelled spiperone. Per well 45 μl of Microscint 40 (Perkin Elmer, Schwerzenbach, Switzerland) was added, plates for sealed, shaken for 20 min and counted for 3 min on a Topcount Microplate Scintillation Counter (Can berra Packard SA, Zürich, Switzerland) with quenching correction.
(§4) The CPM value for each duplicate of a concentration of competing compound was averaged (y1), then the % specific binding was calculated according to the equation (((y1−non-specific)/(total binding−non-specific))×100). Graphs were plotted with the % specific binding using XLfit, a curve fitting program that iteratively plots the data using Levenberg-Marquardt algorithm. The single site competition analysis equation used was y=A+((B−A)/(1+((x/C)D))), where y is the % specific binding, A is the minimum y, B is the maximum y, C is the IC50, x is the log 10 of the concentration of the competing compound and D is the slope of the curve (the Hill Coefficient). […] The affinity constant (Ki) was calculated using the Cheng-Prusoff equation Ki=(IC50/1+([L]/Kd), where [L] is the concentration of radioligand and Kd is the dissociation constant of the radioligand at the receptor as determined by the saturation isotherm.

For a further series, the target named is human D3 receptor (Homo sapiens (Human), UniProt P35462). The description is as above. The settings on record: HEK293 EBNA cell membranes expressing human D3. Here is the method: as §1, §2, §3, §4
Chain of human D3 receptor (P35462 whole entry): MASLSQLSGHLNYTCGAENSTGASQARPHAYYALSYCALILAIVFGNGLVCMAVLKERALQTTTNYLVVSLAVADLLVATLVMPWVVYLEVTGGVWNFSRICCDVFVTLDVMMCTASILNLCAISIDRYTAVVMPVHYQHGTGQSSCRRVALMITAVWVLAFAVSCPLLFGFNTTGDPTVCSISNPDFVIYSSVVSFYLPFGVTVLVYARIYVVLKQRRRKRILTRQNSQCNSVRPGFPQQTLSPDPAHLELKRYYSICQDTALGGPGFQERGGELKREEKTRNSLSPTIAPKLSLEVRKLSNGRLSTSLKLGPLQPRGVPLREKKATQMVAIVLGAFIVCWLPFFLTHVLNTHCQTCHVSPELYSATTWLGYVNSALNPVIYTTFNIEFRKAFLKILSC
For the next series, the target named is human 5-HT2A receptor (Homo sapiens (Human), UniProt P28223). The experiment in a line: Radioligand binding ([3H]-ketanserin) to cloned receptors expressed in HEK-293 EBNA cells. As to conditions: HEK293 EBNA cell membranes expressing human 5-HT2A. Here is the method:
as §1, §2, §3, §4

Chain of human 5-HT2A receptor (P28223 whole entry): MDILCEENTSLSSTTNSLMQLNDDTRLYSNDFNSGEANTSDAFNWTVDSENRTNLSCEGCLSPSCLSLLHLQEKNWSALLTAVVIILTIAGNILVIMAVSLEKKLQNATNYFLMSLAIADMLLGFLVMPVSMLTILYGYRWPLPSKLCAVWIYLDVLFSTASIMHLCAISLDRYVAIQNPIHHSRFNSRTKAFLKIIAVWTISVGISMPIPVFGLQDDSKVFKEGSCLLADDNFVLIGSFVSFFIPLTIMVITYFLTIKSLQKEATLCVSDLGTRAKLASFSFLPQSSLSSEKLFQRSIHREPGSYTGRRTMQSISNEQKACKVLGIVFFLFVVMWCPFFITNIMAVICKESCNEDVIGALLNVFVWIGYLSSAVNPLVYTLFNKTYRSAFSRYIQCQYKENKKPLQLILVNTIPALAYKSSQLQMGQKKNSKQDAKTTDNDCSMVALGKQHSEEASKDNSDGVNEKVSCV
Chain of human D2 receptor (P14416 whole entry): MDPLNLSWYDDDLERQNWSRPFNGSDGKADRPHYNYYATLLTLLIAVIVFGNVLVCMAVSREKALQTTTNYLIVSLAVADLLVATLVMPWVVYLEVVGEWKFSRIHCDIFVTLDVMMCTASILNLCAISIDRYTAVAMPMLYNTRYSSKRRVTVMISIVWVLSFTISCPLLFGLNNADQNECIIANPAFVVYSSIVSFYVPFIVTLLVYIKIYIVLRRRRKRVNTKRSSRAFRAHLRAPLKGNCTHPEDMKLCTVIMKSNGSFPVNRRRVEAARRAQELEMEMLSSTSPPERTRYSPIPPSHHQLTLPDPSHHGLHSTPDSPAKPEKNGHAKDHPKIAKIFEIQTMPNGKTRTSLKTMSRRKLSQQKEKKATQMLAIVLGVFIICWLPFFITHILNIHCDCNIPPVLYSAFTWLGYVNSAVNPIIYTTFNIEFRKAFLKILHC

As for `O=C(CC(F)(F)F)N[C@H]1CC[C@H](CCN2CCC(c3cccc4c3CCO4)CC2)CC1` [Example 18, trans-N-(4-{2-[4-(2,3-Dihydro-benzofuran-4-yl)-piperidin-1-yl]ethyl}-cyclohexyl)-3,3,3-trifluoro-propionamide], the melting point was 197 °C. Also, on human D2 receptor, the Ki worked out at 345 nM. Moreover, the inhibition constant (Ki) at human D3 receptor is 4.4 nM. The Ki at human 5-HT2A receptor was determined as 34.2 nM.
In the case of `Cc1cc(CC(=O)N[C@H]2CC[C@H](CCN3CCC(c4cccc5c4CCO5)CC3)CC2)on1` [Example 19, trans-N-(4-{2-[4-(2,3-Dihydro-benzofuran-4-yl)-piperidin-1-yl]-ethyl}-cyclohexyl)-2-(3-methyl-isoxazol-5-yl)-acetamide], the melting point is 188 °C. Further, the Ki on human D2 receptor was determined as 540 nM. In addition, the Ki on human D3 receptor came to 2 nM. Besides, the Ki at human 5-HT2A receptor was 32.9 nM.
In the same order, the values of `O=C(CO)N[C@H]1CC[C@H](CCN2CCC(c3cccc4c3CCO4)CC2)CC1` [Example 20, trans-N-(4-{2-[4-(2,3-Dihydro-benzofuran-4-yl)-piperidin-1-yl]-ethyl}-cyclohexyl)-2-hydroxy-acetamide] are 154.5 °C, 571 nM, 10 nM and 25.3 nM.
`CC(C)C(=O)N[C@H]1CC[C@H](CCN2CCC(c3cccc4c3CCO4)CC2)CC1` [Example 23, trans-N-(4-{2-[4-(2,3-Dihydro-benzofuran-4-yl)-piperidin-1-yl]-ethyl}-cyclohexyl)-isobutyramide]: the melting point was determined as 212 °C. For the same compound, at human D2 receptor, the Ki worked out at 285 nM. Further, the Ki at human D3 receptor was 8 nM. The Ki at human 5-HT2A receptor came out at 19.9 nM.
The like results for `CC(C)CC(=O)N[C@H]1CC[C@H](CCN2CCC(c3cccc4c3CCO4)CC2)CC1` [Example 24, trans-N-(4-{2-[4-(2,3-Dihydro-benzofuran-4-yl)-piperidin-1-yl]-ethyl}-cyclohexyl)-3-methyl-butyramide] were, in that order, 197 °C, 213 nM, 5.2 nM and 31.1 nM.
In the same order, the values of `O=C(N[C@H]1CC[C@H](CCN2CCC(c3cccc4c3CCO4)CC2)CC1)C1CCC1` [Example 26, Cyclobutanecarboxylic acid trans-(4-{2-[4-(2,3-dihydro-benzofuran-4-yl)-piperidin-1-yl]-ethyl}-cyclohexyl)-amide] are 197 °C, 145 nM, 8.4 nM and 20.4 nM.
The like results for `O=C(CCO)N[C@H]1CC[C@H](CCN2CCC(c3cccc4c3CCO4)CC2)CC1` [Example 27, trans-N-(4-{2-[4-(2,3-Dihydro-benzofuran-4-yl)-piperidin-1-yl]-ethyl}-cyclohexyl)-3-hydroxy-propionamide] were, in that order, 158 °C, 344 nM, 6.5 nM and 61.8 nM.
For `O=C(N[C@H]1CC[C@H](CCN2CCC(c3cccc4c3CCO4)CC2)CC1)C1(O)CC1` [Example 28, 1-Hydroxy-cyclopropanecarboxylic acid trans-(4-{2-[4-(2,3-dihydro-benzofuran-4-yl)-piperidin-1-yl]-ethyl}-cyclohexyl)-amide], the melting point is 164 °C. Moreover, the Ki on human D2 receptor turned out to be 299 nM. In addition, on human D3 receptor, the Ki was 8.4 nM. For the same compound, the Ki on human 5-HT2A receptor came out at 9.3 nM.
`O=C(N[C@H]1CC[C@H](CCN2CCC(c3cccc4c3CCO4)CC2)CC1)C1CC1` [Example 29, Cyclopropanecarboxylic acid trans-(4-{2-[4-(2,3-dihydro-benzofuran-4-yl)-piperidin-1-yl]-ethyl}-cyclohexyl)-amide]: the melting point came to 208 °C. Besides, on human D2 receptor, the inhibition constant (Ki) was 151 nM. The Ki at human D3 receptor stood at 8.9 nM. Further, at human 5-HT2A receptor, the Ki came out at 23.6 nM.
The like results for `O=C(CC1CC1)N[C@H]1CC[C@H](CCN2CCC(c3cccc4c3CCO4)CC2)CC1` [Example 30, trans-2-Cyclopropyl-N-(4-{2-[4-(2,3-dihydro-benzofuran-4-yl)-piperidin-1-yl]-ethyl}-cyclohexyl)-acetamide] were, in that order, 189 °C, 268 nM, 2.9 nM and 28.7 nM.
Turning to `O=C(N[C@H]1CC[C@H](CCN2CCC(c3cccc4c3CCO4)CC2)CC1)c1ccc(N2CCOCC2)cc1` [Example 33, trans-N-(4-{2-[4-(2,3-Dihydro-benzofuran-4-yl)-piperidin-1-yl]-ethyl}-cyclohexyl)-4-morpholin-4-yl-benzamide], the melting point stood at 247 °C. In addition, the Ki on human D2 receptor was 128 nM. The Ki on human D3 receptor is 10.5 nM. Moreover, the Ki at human 5-HT2A receptor is 17.6 nM.
The like results for `O=C(N[C@H]1CC[C@H](CCN2CCC(c3cccc4c3CCO4)CC2)CC1)c1ccc(Cl)cc1` [Example 34, trans-4-Chloro-N-(4-{2-[4-(2,3-dihydro-benzofuran-4-yl)-piperidin-1-yl]-ethyl}-cyclohexyl)-benzamide] were, in that order, 224 °C, 71.9 nM, 4.9 nM and 18.1 nM.
The like results for `O=C(N[C@H]1CC[C@H](CCN2CCC(c3cccc4c3CCO4)CC2)CC1)c1ccc(F)cc1` [Example 35, trans-N-(4-{2-[4-(2,3-Dihydro-benzofuran-4-yl)-piperidin-1-yl]-ethyl}-cyclohexyl)-4-fluoro-benzamide] were, in that order, 213 °C, 73.7 nM, 4.9 nM and 14.2 nM.
In turn, `O=C(C[C@@H](O)C(F)(F)F)N[C@H]1CC[C@H](CCN2CCC(c3cccc4c3CCO4)CC2)CC1` [Example 36, trans-(R)—N-(4-{2-[4-(2,3-Dihydro-benzofuran-4-yl)-piperidin-1-yl]-ethyl}-cyclohexyl)-4,4,4-trifluoro-3-hydroxy-butyramide] displayed a melting point of 189 °C. The Ki on human D2 receptor is 239 nM. In addition, the inhibitory constant (Ki) on human D3 receptor worked out at 6.5 nM. In addition, the Ki at human 5-HT2A receptor stood at 53.4 nM.
The like results for `CC(C)(O)C(=O)N[C@H]1CC[C@H](CCN2CCC(c3cccc4c3CCO4)CC2)CC1` [Example 38, trans-N-(4-{2-[4-(2,3-Dihydro-benzofuran-4-yl)-piperidin-1-yl]-ethyl}-cyclohexyl)-2-hydroxy-2-methyl-propionamide] were, in that order, 163 °C, 495 nM, 34.9 nM and 8 nM.
In the same order, the values of `O=C(N[C@H]1CC[C@H](CCN2CCC(c3cccc4c3CCO4)CC2)CC1)c1ccnc2ccccc12` [Example 40, Quinoline-4-carboxylic acid trans-(4-{2-[4-(2,3-dihydro-benzofuran-4-yl)-piperidin-1-yl]-ethyl}-cyclohexyl)-amide] are 211 °C, 563 nM, 6.1 nM and 24.2 nM.
In the same order, the values of `Cc1cc(C(=O)N[C@H]2CC[C@H](CCN3CCC(c4cccc5c4CCO5)CC3)CC2)on1` [Example 41, 3-Methyl-isoxazole-5-carboxylic acid trans-(4-{2-[4-(2,3-dihydro-benzofuran-4-yl)-piperidin-1-yl]-ethyl}-cyclohexyl)-amide] are 215 °C, 124 nM, 10.8 nM and 36.4 nM.

The Ki is a dissociation constant, usually derived from enzyme kinetics or from competition with a known ligand. The melting point is the temperature, or range, at which the solid turns liquid.
